This note sets out measurements from article PMC3628601, “Novel control of lactate dehydrogenase from the freeze tolerant wood frog: role of posttranslational modifications” (PeerJ, 2013).

What all share (format): biochemical, Lithobates sylvaticus
Assay [1] has as its system T1, muscle LDH, dehydrated (dehydrated LDH).
T1 construct: gene LDHA
The experiment in a line: NADH production at […] nm, reverse reaction. The settings on record: pH 8, 22 °C, 50 mM Tris.

Assay [2] relates to T2, muscle LDH, control (control LDH).
T2 construct: gene LDHA
Nature of the assay: NADH production at […] nm, reverse reaction. The settings on record: pH 8, 22 °C, 50 mM Tris.

Assay [3] has the same test system. The experiment in a line: NADH consumption at […] nm, forward reaction. The settings on record: pH 7, 22 °C, 50 mM Tris, saturating NADH (0.15 mM).
The test system of assay [4] is T1, muscle LDH, dehydrated (dehydrated LDH). The experiment in a line: NADH consumption at […] nm, forward reaction. The settings on record: pH 7, 22 °C, 50 mM Tris, saturating NADH (0.15 mM).
Assay [5] has the same test system. The experiment in a line: NADH absorbance at […] nm, forward reaction. The conditions noted are these: pH 7.0, 22 °C, 50 mM Tris, saturating NADH (0.15 mM); inhibition by excess substrate.
In assay [6] the test system is T2, muscle LDH, control (control LDH). Nature of the assay: NADH absorbance at […] nm, forward reaction. The settings on record: pH 7.0, 22 °C, 50 mM Tris, saturating NADH (0.15 mM); inhibition by excess substrate.

Consider `C[C@H](O)C(=O)O` [L-lactate], for which the Km came to 5600 ± 500 µM in assay [1] (saturating NAD (1 mM)) and 11000 ± 640 µM in assay [2] (saturating NAD (1 mM)).
Consider `NC(=O)c1ccc[n+]([C@@H]2O[C@H](COP(=O)(O)OP(=O)(O)OC[C@H]3O[C@@H](n4cnc5c(N)ncnc54)[C@H](O)[C@@H]3O)[C@@H](O)[C@H]2O)c1` [NAD], for which the Km in assay [1] (saturating L-lactate (22.5 mM)) amounted to 640 ± 40 µM; in assay [2] (saturating L-lactate (22.5 mM)), 1380 ± 50 µM.
Regarding `CC(=O)C(=O)O` [pyruvate], the Km in assay [3] was 160 ± 10 µM; in assay [4], 130 ± 10 µM. Moreover, in assay [5], the Dehydrated was 8.26 ± 0.76 mM. The same molecule came in with a Control in assay [6] of 7.93 ± 0.34 mM.
